Reference: publication PMC11850249, “Typical and atypical metabolic characteristics of three iridaceae isoflavone components: in vitro and in silico studies” (Frontiers in Pharmacology, 2025)
Several values for one entry are separate records, joined by “and”; a condition that tells them apart may be missing. Equal values may be shown once. Read-outs that look alike come from different tables or passages of the source.

Columns and labels:
[1] = test system: human liver microsomes (HLMs); experiment: Metabolic stability and metabolite identification in HLMs; type: in vitro ADME; conditions: 30 min
Procedure: To analyze the metabolic stability, a phase I metabolic system was established. Tectorigenin, irigenin, or irisflorentin (100 μM) was pre-incubated at 37°C with Tris-HCl buffer solution (50 mM), MgCl2 (10 mM), and HLMs (0.5 mg protein/mL). After 5 min, NADPH (1 mM) was added to start the metabolic reactions. After incubation for 30 min, an equal volume of methanol was added to terminate the reaction. After centrifugation, the supernatant was used for metabolite analysis. By comparing the high-performance liquid chromatography (HPLC) chromatograms of the samples incubated for 0 and 30 min to determine the generation of metabolites, mass spectrometry information for the metabolites was obtained using an UPLC-linear ion Trap-Orbitrap Mass Spectrometry method.
A UPLC system coupled with an LTQ-Orbitrap mass spectrometer (Thermo Fisher Scientific, Waltham, MA, United States) was used. The mass spectrometer was equipped with an electrospray ionization source operating in negative ion mode for tectorigenin and irigenin, and in positive ion mode for irisflorentin. The following parameter settings were used: sheath gas flow rate, 45 arb; auxiliary gas flow rate, 15 arb; capillary temperature, 350°C; spray voltage, 3.8 kV; and heating component temperature, 300°C. Xcalibur software (Thermo Fisher Scientific) was employed to acquire and process the data.

[2] = test system: CYP isoenzymes in HLMs; experiment: Inhibition by chemical CYP inhibitors in HLMs; type: in vitro ADME, human
Procedure: To investigate the role of specific CYP subtypes in metabolism, tectorigenin, irigenin, or irisflorentin (100 μM) was co-incubated with HLMs (0.5 mg protein/mL), NADPH (1 mM), and MgCl2 (10 mM) in the presence of known CYP inhibitors. The inhibitors used were α-Naph (20 μM) for CYP1A2 ([Zhang Y. J. et al., 2021]), Tryp (2 μM) for CYP2A6 ([Rodríguez-Morató et al., 2017]), Spz (10 μM) for CYP2C9 ([Berger et al., 2018]), Ticlo (2 μM) for CYP2B6 and 2C19 ([Yang et al., 2019]), Qd (8 μM) for CYP2D6 ([Martin et al., 2022]), DDC (100 μM) for CYP2E1 ([Zhang X. et al., 2021]), and KCZ (1 μM) for CYP3A4 ([Berger et al., 2018]). Finally, the samples obtained by centrifugation after adding ice-cold methanol to the incubated samples were analyzed using HPLC. Samples without inhibitors were used as controls to calculate the inhibition rates. Each inhibitor group and the control group were compared. All experiments were carried out in triplicate.

[3] = test system: recombinant CYP enzymes (CYP1A2, CYP2A6, CYP2C8, CYP2C9, CYP2C19, CYP2D6, CYP2E1, CYP3A4); experiment: Reaction phenotyping with recombinant CYP enzymes; type: in vitro ADME, human
Procedure: To assess the role of CYP enzymes to isoflavone metabolism, tectorigenin, irigenin, or irisflorentin (100 μM) was co-incubated with 25 pmol of recombinant CYP enzymes (CYP1A2, CYP2A6, CYP2C8, CYP2C9, CYP2C19, CYP2D6, CYP2E1, and CYP3A4) and MgCl2 (10 mM) in Tris-HCl buffer. The samples were pre-incubated at 37°C for 5 min, and the reaction was initiated by the addition of NADPH. After 30 min of incubation, the supernatant obtained by centrifugation after adding methanol to the incubated sample was analyzed by HPLC. All experiments were carried out in triplicate.

[4] = Enzyme kinetics in HLMs; type: in vitro ADME, human; conditions: human, human liver microsomes, calculated from Vmax and Km or S50, read-out: Clint for metabolite formation
Procedure: (§1) A series of concentrations (1–300 μM) of tectorigenin, irigenin, or irisflorentin were added to HLMs or recombinant enzymes. Nonlinear regression was performed on the substrate concentration and generation rate of metabolites to investigate the enzymatic kinetic characteristics of these components in the metabolic system. All experiments were carried out in triplicate.
(§2) A Waters AQUITY UPLC system (Waters, Milford, MA, United States) equipped with a Dikma ODS C18 column (150 × 4.6 mm, 5 μm) was used for separation at 30°C. The binary mobile phase consisted of A (an aqueous solution containing 0.1% acetic acid and 2 mM ammonium acetate) and B (acetonitrile) at a flow rate of 1 mL/min. The elution settings were as follows: 0 → 5 min: 10% B → 20% B; 5 min → 20 min: 20% B → 50% B; 20 min → 21 min: 50% B → 60% B; 21 min → 25 min: 60% B → 90% B; 25 min → 25.1 min 90%–10% B; 25.1 min → 30 min 10% B. Flow rate: 1 mL/min 260 nm was used as the detection wavelength. Calibration standard curves were generated using a reaction mixture containing tectorigenin, irigenin, or irisflorentin at a concentration range of 0.03–10 µM. The concentrations of the metabolites were calculated using a standard curve of the substrates.
(§3) GraphPad Prism software 5.0 was used to perform non-linear fitting between the metabolite generation rate (V) and substrate concentration [S]. The appropriateness of the enzyme kinetic model was determined using R ^2 and the Eadie-Hofstee fit. The maximum metabolic rate (Vmax) and Michaelis constant (Km) were obtained for kinetic processes that conformed to the Michaelis–Menten model (Equation 1). For kinetic processes that conform to the sigmoidal kinetics model (Equation 2), Vmax, Hill coefficient (n), and S50, concentrations at 50% Vmax were obtained. Intrinsic clearance (Clint) was calculated according to Equation 3 (for the Michaelis–Menten model) and Equation 4 (for the sigmoidal kinetics model). All data are expressed as mean ± Standard Error (SE). One - way analysis of variance was used to compare the differences between different groups. A p-value below 0.05 was regarded as statistically significant. V=VmaxS/Km+S (1) V=Vmax+C^n/S50n+C^n (2) Clint=Vmax/Km (3) Clint=Vmax/S50×n−1/nn−1^1/n (4)

[5] = test system: human liver microsomes (HLMs); experiment: Enzyme kinetics in HLMs; type: in vitro ADME; conditions: for Km: n = 3, read-out: Km for metabolite formation
Procedure: as §1, §2, §3

[6] = biological target: T1, CYP2E1 (Homo sapiens, UniProt P05181); experiment: Enzyme kinetics with recombinant CYP2E1; type: in vitro ADME
T1 construct: purchased CYPEX (Dundee, United Kingdom)
T1 sequence (P05181 whole entry): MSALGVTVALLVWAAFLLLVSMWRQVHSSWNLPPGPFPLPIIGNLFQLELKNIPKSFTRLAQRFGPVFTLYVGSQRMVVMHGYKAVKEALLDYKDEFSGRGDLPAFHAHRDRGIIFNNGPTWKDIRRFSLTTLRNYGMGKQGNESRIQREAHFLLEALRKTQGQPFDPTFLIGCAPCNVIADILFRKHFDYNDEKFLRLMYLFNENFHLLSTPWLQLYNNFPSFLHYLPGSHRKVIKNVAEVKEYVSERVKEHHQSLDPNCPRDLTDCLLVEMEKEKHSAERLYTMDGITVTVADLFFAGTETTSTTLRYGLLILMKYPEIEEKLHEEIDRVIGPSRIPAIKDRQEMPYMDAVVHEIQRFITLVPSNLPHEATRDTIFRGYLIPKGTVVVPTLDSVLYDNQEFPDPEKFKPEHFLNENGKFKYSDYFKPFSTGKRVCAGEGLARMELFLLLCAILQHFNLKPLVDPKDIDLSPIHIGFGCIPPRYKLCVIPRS
Procedure: as §1
(§4) A Waters AQUITY UPLC system (Waters, Milford, MA, United States) equipped with a Dikma ODS C18 column (150 × 4.6 mm, 5 μm) was used for separation at 30°C. The binary mobile phase consisted of A (an aqueous solution containing 0.1% acetic acid and 2 mM ammonium acetate) and B (acetonitrile) at a flow rate of 1 mL/min. […] The concentrations of the metabolites were calculated using a standard curve of the substrates.
(§5) GraphPad Prism software 5.0 was used to perform non-linear fitting between the metabolite generation rate (V) and substrate concentration [S]. The appropriateness of the enzyme kinetic model was determined using R ^2 and the Eadie-Hofstee fit. […] Intrinsic clearance (Clint) was calculated according to Equation 3 (for the Michaelis–Menten model) and Equation 4 (for the sigmoidal kinetics model). All data are expressed as mean ± Standard Error (SE). […]

[7] = biological target: T2, CYP3A4 (Homo sapiens, UniProt P08684); experiment: Enzyme kinetics with recombinant CYP3A4; type: in vitro ADME
T2 construct: purchased CYPEX (Dundee, United Kingdom)
T2 sequence (P08684 whole entry): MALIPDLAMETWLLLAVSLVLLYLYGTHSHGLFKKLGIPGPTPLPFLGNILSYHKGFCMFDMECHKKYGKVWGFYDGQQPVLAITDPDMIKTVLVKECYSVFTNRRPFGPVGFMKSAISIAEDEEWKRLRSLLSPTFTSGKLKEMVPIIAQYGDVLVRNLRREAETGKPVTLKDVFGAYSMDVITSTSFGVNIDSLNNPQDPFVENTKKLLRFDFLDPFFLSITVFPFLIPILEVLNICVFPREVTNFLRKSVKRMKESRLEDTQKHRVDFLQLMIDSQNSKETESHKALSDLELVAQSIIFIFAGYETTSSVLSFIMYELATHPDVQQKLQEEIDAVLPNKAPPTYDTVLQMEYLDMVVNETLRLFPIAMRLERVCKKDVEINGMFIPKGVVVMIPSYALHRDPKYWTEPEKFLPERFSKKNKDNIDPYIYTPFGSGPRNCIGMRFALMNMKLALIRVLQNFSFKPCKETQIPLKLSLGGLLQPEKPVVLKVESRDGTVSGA
Procedure: as §1, §4, §5

[8] = biological target: T3, CYP1A2 (Homo sapiens, UniProt P05177); experiment: Enzyme kinetics with recombinant CYP1A2; type: in vitro ADME
T3 construct: purchased CYPEX (Dundee, United Kingdom)
T3 sequence (P05177 1-516): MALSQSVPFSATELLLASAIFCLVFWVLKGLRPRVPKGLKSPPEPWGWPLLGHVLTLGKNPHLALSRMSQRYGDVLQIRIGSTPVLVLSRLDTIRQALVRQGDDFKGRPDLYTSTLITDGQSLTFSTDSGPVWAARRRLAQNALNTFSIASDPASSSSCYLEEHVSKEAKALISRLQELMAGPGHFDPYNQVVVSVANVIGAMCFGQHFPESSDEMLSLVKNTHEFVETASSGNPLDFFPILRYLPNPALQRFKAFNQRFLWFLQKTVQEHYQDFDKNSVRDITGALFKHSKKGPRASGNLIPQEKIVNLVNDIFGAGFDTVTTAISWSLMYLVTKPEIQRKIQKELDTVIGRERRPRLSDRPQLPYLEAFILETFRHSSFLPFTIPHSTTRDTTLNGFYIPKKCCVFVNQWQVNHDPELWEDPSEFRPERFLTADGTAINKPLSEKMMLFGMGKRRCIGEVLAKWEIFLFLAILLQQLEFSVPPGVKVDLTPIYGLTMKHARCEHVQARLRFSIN
Procedure: as §1, §4, §5

[9] = test system: rat liver microsomes; parameters: method as in Zhang Y. J. et al., 2021; conditions: ref Zhang Y. J. et al., 2021; cited from earlier work
[10] = biological target: T4, CYP2C19 (Homo sapiens, UniProt P33261); experiment: Enzyme kinetics with recombinant CYP2C19; type: in vitro ADME
T4 construct: purchased CYPEX (Dundee, United Kingdom)
T4 sequence (P33261 whole entry): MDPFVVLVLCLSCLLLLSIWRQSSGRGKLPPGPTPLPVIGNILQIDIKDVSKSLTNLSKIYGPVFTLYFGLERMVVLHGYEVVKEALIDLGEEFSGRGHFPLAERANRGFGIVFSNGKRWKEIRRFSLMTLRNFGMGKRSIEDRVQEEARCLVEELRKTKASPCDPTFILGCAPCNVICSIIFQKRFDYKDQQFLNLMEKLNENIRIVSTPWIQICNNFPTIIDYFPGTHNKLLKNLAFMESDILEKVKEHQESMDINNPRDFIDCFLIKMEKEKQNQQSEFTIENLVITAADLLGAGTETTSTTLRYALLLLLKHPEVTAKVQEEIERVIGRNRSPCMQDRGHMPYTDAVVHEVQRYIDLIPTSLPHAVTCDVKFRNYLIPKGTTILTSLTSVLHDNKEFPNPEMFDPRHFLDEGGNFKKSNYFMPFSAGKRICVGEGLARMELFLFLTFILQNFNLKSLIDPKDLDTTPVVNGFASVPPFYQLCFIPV
Procedure: as §1, §4, §5

[11] = Michaelis-Menten model, mean ± SE

## COc1c(O)cc2occ(-c3ccc(O)cc3)c(=O)c2c1O [Tectorigenin]
[1]; 100 μM substrate, HLMs 0.5 mg protein/mL, NADPH 1 mM
  major metabolite after incubation with HLMs: hydroxylation metabolite of tectorigenin
[2]; inhibitor Ticlo (CYP2B6 and 2C19 inhibitor), HLMs
  effect of Ticlo on metabolite formation (in words): no effect or a weak inhibitory effect
[2]; inhibitor α-Naph (CYP1A2 inhibitor), HLMs
  effect of α-Naph on metabolite formation (in words): slight inhibition
[3]; human, 30 min, 100 μM
  production of metabolites by CYP2E1 and CYP3A4 relative to the other subtypes: 3–38 times
  recombinant CYP subtypes that catalyze metabolite formation: CYP1A2, CYP2C19, CYP2E1, and CYP3A4
[4]
  microsomal CLint: 2.6 µL/min/mg
[5]
  enzyme kinetic model (Eadie-Hofstee plot): Michaelis–Menten equation
[5]; [11]
  Km: 106 ± 7.3 µM
[5]; mean ± SE, n = 3
  Vmax for metabolite formation: 275.9 ± 7.6 pmol/min/mg protein
[6]
  Clint: 0.2 μL/min/pmol CYP
[7]
  Clint: 0.2 μL/min/pmol CYP

## COc1cc(-c2coc3cc4c(c(OC)c3c2=O)OCO4)cc(OC)c1OC [Irisflorentin]
[1]; human, 100 μM
  major metabolite after incubation with HLMs: 6,7-dihydroxy-5,3′,4′,5′-tetramethoxy isoflavone
[2]
  effect of Ticlo on metabolite formation (in words): no effect or a weak inhibitory effect
  effect of α-Naph on metabolite formation (in words): strong inhibition
[3]; human, 30 min, 100 μM
  metabolism by CYP1A2 relative to CYP2C9, CYP2C19 and CYP3A4: 21–55 times
  recombinant CYP subtypes that catalyze metabolite formation: CYP1A2, CYP2C19, and CYP3A4
[5]
  enzyme kinetic model (Eadie-Hofstee plot): sigmoidal kinetics characteristic
[5]; mean ± SE, n = 3
  Vmax for metabolite formation: 235.4 ± 3.2 pmol/min/mg protein
[5]; sigmoidal kinetics model
  Hill coefficient (n): 1.8 ± 0.1
[5]; sigmoidal kinetics model, mean ± SE, n = 3
  S50: 32.9 ± 1.0 µM
[8]; recombinant CYP1A2, sigmoidal kinetics
  Hill coefficient: 1.5 ± 0.1 and 1.5
[8]; recombinant CYP1A2, sigmoidal kinetics model
  Clint: 1.5 μL/min/pmol CYP
[9]
  Hill coefficient: 1.48

## COc1cc(-c2coc3cc(O)c(OC)c(O)c3c2=O)cc(O)c1OC [Irigenin]
[2]
  effect of Ticlo on metabolite formation (in words): significantly inhibited
[3]; 100 μM substrate, 25 pmol recombinant CYP, 30 min, eight subtypes measured
  recombinant CYP subtypes that catalyze metabolite formation: CYP3A4, CYP2C9, and CYP2C19
[3]; recombinant enzymes, CYP2C19 vs CYP2C9 and CYP3A4
  metabolism by CYP2C19 relative to CYP2C9 and CYP3A4: 10–29 times
[5]
  enzyme kinetic model (Eadie-Hofstee plot): Michaelis–Menten equation
[5]; Michaelis-Menten model, mean ± SE, n = 3
  Vmax for metabolite formation: 263 ± 13.6 pmol/min/mg
[5]; [11]
  Km: 17.5 ± 3.2 µM
[10]
  Clint: 0.5 μL/min/pmol CYP
